Results: patent publication US9526243B2, “Pollination success and seed set in corn hybrid seed production” (priority 2012, dated 2016)

Key:
Format in all cases: in vivo, corn (maize, Zea mays)
[1] = tested on: male parent plant of Hybrid A (corn)
Source text: Hybrid A is a three-way corn hybrid which performs well in rain-fed areas in India. The female parent of this hybrid is a single cross and male parent is an inbred. […] The ear height in female is 94 cm and male plant height (including tassel length) is 190 cm. The ratio of male parent plant height to female parent ear height is 2.02. This is not favorable for pollen dispersal and cross fertilization. A taller male gives a very clear advantage in easy spread of pollen. Further, a height disadvantage is amplified where the female is a single cross and male is inbred, as the robust female parent suppresses male parent growth. […] With less seed yield due to low seed set, seed production may be uneconomical in Hybrid A. Controlled use of Gibberellic Acid as foliar spray for male parent helped increase the plant height and thereby facilitated easier dispersal of pollen for better pollination success.
When GA3 was sprayed on male parent at a given dosage, the last few internodes were elongated and the plant height was increased by 33 cm. The ratio of male parent plant height to female parent ear height increased from 2.02 in control (no GA3 spray) to 2.40 after spray. This spray was done when a minimum of 80% of the plants had the tassel wrapped in two leaves.
A field trial was conducted to study the impact of GA3 on male parent plant height and also seed yield in hybrid seed production. GA3 dose of 10 g (dissolved in 100 ml alcohol) was sprayed in one acre of male plants (25% of area in 3:1 row ratio) when male tassel is wrapped up in two leaves.

[2] = tested on: Inbred B male plants (corn); assay: GA3 spray to increase male inbred height, Inbred B (Brazil); conditions: for plant height increase: one application before flowering, 365 g GA3 (10% active ingredient) per hectare
Procedure: (§1) GA3 spray to increase male inbred height was also tested with 2 more inbreds, Inbred B and Inbred C, in Brazil.
Inbred B was sown in two sequential plantings, separated by 80 to 100 heat units. The first planting is referred to as the primary male; the second planting is referred to as the secondary male. The two male plantings were separated in the field by 40 cm; minimum distance from female rows was 70 cm.
(§2) Data were collected after the following treatments: (a) control, (b) GA3: one application, before flowering, when the tassel is enveloped in 2 leaves; (b) GA3: 2 sequential applications, one at V6 stage and 1 application before flowering. The concentration of GA3 used was 365 g of GA3 (10% active ingredient) per hectare (which is approximately equivalent to 40 g of GA3 at 90% active ingredient), and the spray volume was 130 liters/hectare.
(§3) The plot had 5.20 meter length of each row and 60 cm between plots. Ten male plants in sequence for each male row (primary male and secondary male separate) were measured and the average calculation was obtained and replicated 5 times in different plots. Measurements taken were plant height; length of primary rachis of the tassel; number of secondary tassel branches; and visual pollen score where 1=no pollen (sterile), 5=average amount of pollen, and 9=large amount of pollen.

[3] = tested on: Inbred C male plants (corn); assay: GA3 spray to increase male inbred height, Inbred C (Brazil)
Procedure: as §1, §2, §3

[4] = Inbred B, one GA application vs control
[5] = Inbred B, two sequential GA treatments (V6 and before flowering), relative to control, primary and secondary males

Structure (SMILES): C=C1C[C@]23C[C@@]1(O)CC[C@H]2[C@@]12C=C[C@H](O)[C@@](C)(C(=O)O1)[C@H]2[C@@H]3C(=O)O [GA3, gibberellin A3]
- yield improvement ([1]; Hybrid A experimental plot, GA3 treatment vs control): 32%
- hybrid seed yield with GA3 treatment ([1]; Hybrid A experimental plot, control 607 Kg/Acre): 803 Kg/Acre
- negative or deleterious effects on other plant processes ([1]; Hybrid A male parent after GA3 spray): without any negative or deleterious effects
- increase in male parent plant height ([1]; Hybrid A male parent, GA3 10 g sprayed when tassel wrapped in two leaves, vs control (no GA3 spray)): 33 cm
- male parent plant height increase ([1]; Hybrid A male parent, after spraying GA3, from 190 cm): 17%
- male parent plant height after spraying GA3 ([1]; Hybrid A male parent, control 190 cm): 223 cm
- ratio of male parent plant height to female parent ear height after spray ([1]; Hybrid A, after GA3 spray, control 2.02): 2.40
- plant height increase ([2]; Inbred B primary males): about 10 cm
- plant height increase ([2]; Inbred B secondary males): ~15 cm
- height of male parent plants ([2]; Inbred B, GA3 concentration increased to 16 g/1000 m^2 of male plants): increase further
- number of secondary branches on the rachis [2, 4]: did not change significantly
- primary rachis length [2, 4]: did not change significantly
- pollen score ([2]; Inbred B, one GA application vs control, visual score 1-9): did not change significantly
- pollen score [2, 5]: reduced
- size of the main rachis [2, 5]: reduced
- effect of a second application compared with a single application ([3]; 2 sequential applications (V6 and before flowering)): not more favorable than a single application
- number of secondary branches on the rachis ([3]; one GA application vs control): did not change significantly
- primary rachis length ([3]; one GA application vs control): did not change significantly
- pollen score ([3]; one GA application vs control, visual score 1-9): did not change significantly
- plant height increase ([3]; one application of GA3): ~12 cm
